Laboratory results taken from the supplement of paper PMC10307832.

Compound: CCN(CC)CCNC(=O)c1c(C)[nH]c(/C=C2\C(=O)Nc3ccc(F)cc32)c1C [Sunitinib]
Experiment: relative viability (nuclei count vs DMSO), 5 days (fraction); higher = more cells survive
Procedure, shortened: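 A plate was accepted only when its control CV was below 25% and the cells had doubled at least once. Viability is defined from nuclear counts as treated wells divided by vehicle wells, with the median taken across plates. That median covers lung cancer cell lines grown in 1536-well plates, dosed by pinning at five √10-spaced library-drug concentrations, and counted in MetaXpress from 4× Hoechst images after 5 days.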

Row | Cell Line | relative viability (0.02 µM) | relative viability (0.06325 µM) | relative viability (0.2 µM) | relative viability (0.6325 µM) | relative viability (2 µM)
1 | 201T | 0.938 | 0.999 | 1.02 | 0.989 | 0.987
2 | A-427 | 0.981 |  | 1.05 | 1.07 | 1.06
3 | ABC-1 | 1.03 | 1.23 | 1.06 | 1.02 | 1.01
4 | BEN | 0.85 | 0.97 | 0.988 | 0.973 | 
5 | CAL-12T | 0.908 | 1.03 | 1.11 | 1.13 | 1.03
6 | COR-L23 | 0.951 | 1.08 | 1.15 | 1.2 | 1.1
7 | COR-L 105 | 0.876 | 1.05 | 0.952 |  | 0.889
8 | Calu-6 | 0.954 | 1.04 | 1.09 | 1.06 | 1.07
9 | ChaGo-K-1 | 0.987 | 1.01 | 1.04 | 1.06 | 1.04
10 | EBC-1 | 0.965 |  | 1.12 | 1.09 | 1.01
11 | EKVX | 0.974 | 1.01 | 1.14 | 1.12 | 1
12 | EMC-BAC-2 | 0.935 | 1.11 | 1.18 | 1.01 | 1.07
13 | EPLC-272H | 0.841 | 1.07 | 0.939 | 0.98 | 0.795
14 | H3255 | 0.94 | 0.902 |  | 1.02 | 0.988
15 | HARA | 0.966 | 1.16 | 1.03 | 0.987 | 
16 | HCC-15 | 0.988 | 1.11 |  | 1.04 | 1
17 | HCC-44 |  | 1.04 | 1.04 | 1.01 | 1.04
18 | HCC-78 | 0.984 | 0.947 | 0.994 | 0.899 | 1
19 | HCC-366 | 0.963 | 1.05 | 1.07 |  | 0.965
20 | HCC-827 | 1.01 | 1.06 | 1.05 | 1.05 | 1.04
21 | HOP-62 | 0.95 | 1.07 | 1.13 | 1.1 | 1.06
22 | IA-LM | 0.951 | 0.953 | 1.05 | 1.1 | 1.07
23 | LC-2-ad | 0.945 | 1.01 | 1.09 | 1 | 0.781
24 | LCLC-97TM1 | 0.968 | 1.14 | 1.01 | 1.02 | 1.09
25 | LCLC-103H | 0.905 | 1.07 | 1.12 | 0.903 | 1.03
26 | LK-2 | 0.936 | 1.02 | 1.22 | 0.905 | 1.01
27 | LOU-NH91 | 1.01 | 0.969 | 1 | 0.98 | 0.941

Row | Cell Line | relative viability (0.02 µM) | relative viability (0.06325 µM) | relative viability (0.2 µM) | relative viability (0.6325 µM) | relative viability (2 µM)
28 | LU99A | 0.84 | 1.1 | 1.04 | 0.938 | 0.901
29 | LXF-289 | 0.949 | 0.986 | 1.04 | 1.02 | 1.01
30 | NCI-H23 | 0.849 | 1.15 | 1.07 | 1.17 | 0.938
31 | NCI-H322M | 0.866 | 1.02 | 1 | 0.936 | 0.892
32 | NCI-H358 | 0.875 | 0.97 | 1.1 | 0.897 | 0.67
33 | NCI-H441 | 0.863 |  | 1.17 | 1.11 | 1.12
34 | NCI-H460 |  |  | 1.05 | 0.995 | 1.08
35 | NCI-H520 | 0.926 | 1.08 | 1.07 | 0.979 | 0.912
36 | NCI-H522 | 0.927 | 1.12 | 0.996 | 0.962 | 0.999
37 | NCI-H596 | 0.952 | 1.15 |  | 0.998 | 0.913
38 | NCI-H647 | 0.991 | 1.14 | 1.03 | 0.989 | 0.956
39 | NCI-H650 | 0.906 | 1.1 | 1.01 | 1.03 | 1.08
40 | NCI-H661 | 0.977 |  | 1 | 1.05 | 1.03
41 | NCI-H727 | 0.942 | 1.17 | 1.23 | 1.09 | 0.859
42 | NCI-H838 | 0.932 | 1.06 | 1.03 | 0.952 | 0.782
43 | NCI-H1299 | 0.99 | 1.07 | 1.04 | 1.04 | 1.08
44 | NCI-H1355 | 0.962 | 1.07 | 1.12 | 1.02 | 1.05
45 | NCI-H1395 | 1.02 | 1.01 | 0.925 | 0.991 | 0.945
46 | NCI-H1437 | 1.03 | 1.03 |  | 0.996 | 1.09
47 | NCI-H1563 | 0.955 | 1.04 | 0.969 | 0.939 | 0.967
48 | NCI-H1648 | 0.767 |  | 1.15 | 1.13 | 1.17
49 | NCI-H1650 |  | 1.05 | 0.964 | 0.942 | 0.903
50 | NCI-H1651 | 0.938 | 1.1 |  | 0.996 | 1.03
51 | NCI-H1666 | 1.02 | 1.07 | 1.1 | 1.05 | 
52 | NCI-H1703 | 0.616 | 0.257 | 0.315 | 0.216 | 0.242
53 | NCI-H1734 | 0.916 | 1.11 | 1.04 | 1.05 | 0.981
54 | NCI-H1755 |  |  | 1.04 | 1.03 | 1.05

Row | Cell Line | relative viability (0.02 µM) | relative viability (0.06325 µM) | relative viability (0.2 µM) | relative viability (0.6325 µM) | relative viability (2 µM)
55 | NCI-H1792 | 0.802 | 1.11 | 1.18 | 0.924 | 1.02
56 | NCI-H1793 |  | 0.974 |  | 0.964 | 0.831
57 | NCI-H1915 | 0.943 | 1.05 | 1.02 | 1.03 | 1.07
58 | NCI-H1944 | 0.914 | 1.09 | 1.15 | 1.05 | 1.1
59 | NCI-H1975 | 0.911 |  | 1.06 | 0.963 | 0.855
60 | NCI-H1993 | 0.963 | 0.992 | 1.08 | 0.915 | 0.98
61 | NCI-H2009 | 0.957 | 1.07 | 1.07 | 1.11 | 
62 | NCI-H2023 | 0.874 | 1.09 | 1.07 | 1.03 | 0.967
63 | NCI-H2085 | 0.999 | 1.04 | 1.01 | 1.03 | 1.04
64 | NCI-H2087 | 1.16 | 1.25 | 1.13 | 1.1 | 1.11
65 | NCI-H2126 | 0.946 | 1.06 | 1.04 | 1.04 | 1.03
66 | NCI-H2170 | 0.909 | 0.993 | 1.05 | 0.953 | 0.959
67 | NCI-H2228 | 1.02 | 1.21 | 1.07 | 0.973 | 0.962
68 | NCI-H2342 | 0.96 | 1.09 | 1.03 | 1.01 | 1.11
69 | NCI-H2347 | 1.01 | 1.08 | 1.1 | 1.04 | 1.18
70 | NCI-H2405 | 1.01 | 1.06 | 1.05 | 1.07 | 1.01
71 | NCI-H3122 | 0.986 | 1.05 | 0.996 | 1.01 | 
72 | PC-3 [JPC-3] | 1.12 | 1.05 | 0.981 | 1.02 | 1.02
73 | PC-14 | 1.01 | 1.01 | 1.13 | 1.02 | 0.898
74 | RERF-LC-KJ | 0.956 | 1.06 | 1.08 | 0.992 | 
75 | SK-LU-1 | 0.972 | 1.19 | 1.1 | 1.13 | 0.959
76 | SK-MES-1 | 0.931 | 1.03 | 1.09 | 1.11 | 0.988
77 | SW 900 | 1.01 | 1.07 | 0.932 | 1.04 | 0.957
78 | SW 1573 | 0.947 | 1.17 | 1.26 | 1.11 | 0.905
79 | UMC-11 | 0.872 | 1.11 | 1.01 | 0.995 | 0.937
